PubChem BioAssay (NCI)
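Test compounds were applied to cells in 96-well plates for 48 hours at 5 doses. GI50 marks 50% less growth. TGI: total growth inhibition.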

Key:
Experiment in all cases: NCI tumour cell line growth inhibition, 48 h
[1] = test system: NCI/ADR-RES ovarian
[2] = test system: M14 melanoma
[3] = test system: HOP-92 NSCLC
[4] = test system: MOLT-4 leukemia
[5] = test system: SF-295 CNS
[6] = test system: NCI-H226 lung
[7] = test system: OVCAR-5 ovarian
[8] = test system: 786-0 renal
[9] = test system: OVCAR-3 ovarian
[10] = test system: NCI-H522 lung

| Structure (SMILES) | TGI [1] [µM] | TGI [2] [µM] | TGI [3] [µM] | GI50 [4] [µM] | TGI [4] [µM] | GI50 [5] [µM] | TGI [5] [µM] | TGI [6] [µM] | TGI [7] [µM] | GI50 [8] [µM] | TGI [8] [µM] | TGI [9] [µM] | TGI [10] [µM] | GI50 [1] [µM] | GI50 [2] [µM] | GI50 [3] [µM] | GI50 [6] [µM] | GI50 [7] [µM] | GI50 [9] [µM] | GI50 [10] [µM] |
| --- | --- | --- | --- | --- | --- | --- | --- | --- | --- | --- | --- | --- | --- | --- | --- | --- | --- | --- | --- | --- |
| NC(=O)c1ncn2c(=O)n(CCCl)nnc12 | 496 | 500 | 408 | 37.2 | 567 | > 68 | 239 | 425 | 608 | 46.4 | 195 | 475 | 384 | – | – | – | – | – | – | – |
| O=C(CC1Sc2ccccc2NC1=O)NNc1ccc(F)cc1 (stereo not drawn) | > 100 | > 100 | > 100 | 5.52 | > 100 | 12.7 | > 100 | > 100 | > 100 | 29.5 | > 100 | > 100 | > 100 | 22.5 | 5.5 | > 100 | 41.3 | > 100 | > 100 | 9.39 |
| COc1ccc2c(c1)C(=O)c1c-2n(CCCCl)c(=O)c2cc(N)ccc12 | > 100 | > 100 | > 100 | > 54.6 | > 100 | > 64.6 | > 100 | > 100 | > 100 | > 63.7 | > 100 | > 100 | > 100 | > 100 | > 100 | 21.2 | > 80.7 | > 61.7 | > 100 | > 84.4 |
| NS(=O)(=O)c1cc(C(=O)O)c(Cl)c([N+](=O)[O-])c1Cl | > 100 | > 100 | > 100 | – | > 100 | – | > 100 | > 100 | > 100 | – | > 100 | > 100 | > 100 | – | – | – | – | – | – | – |
| CN(C)C/C=C/C(=O)Nc1cc2c(Nc3cccc(Cl)c3F)ncnc2cc1OCCOC(F)F | 7.74 | 14.3 | 2.05 | 1.42 | 6.18 | 2.82 | 15.6 | 7.28 | 15.1 | 0.695 | 9.77 | 4 | 2.04 | 0.771 | 3.08 | 0.205 | 1.68 | 0.371 | 0.343 | 0.0289 |
| NCCCNc1nc2ccccc2c2c(=O)c3cc(F)cc(Cl)c3sc12 | 3.46 | 3.28 | 11.8 | 1.78 | 3.77 | 1.75 | 3.2 | 23.7 | 3.1 | 1.45 | 2.9 | 3.25 | 3.68 | 1.73 | 1.78 | 1.87 | 6.37 | 1.65 | 1.78 | 1.76 |
| COC(=O)[C@H](CCCCNC(=O)OCc1ccccc1)NC(=O)[C@@H](NC(=O)Nc1cc(C(F)(F)F)cc(C(F)(F)F)c1)C(C)C | > 10 | > 10 | > 10 | > 10 | > 10 | > 10 | > 10 | > 10 | > 10 | > 10 | > 10 | > 10 | > 10 | > 10 | > 10 | > 10 | > 10 | > 10 | > 10 | > 10 |
| CC1(C)CN(CCNc2nccc(-c3c(-c4cccc(O)c4)nc4sccn34)n2)S(=O)(=O)N1 | > 33.2 | > 26.4 | > 33.2 | 11.3 | > 33.2 | 17.7 | > 33.2 | 32.4 | > 33.2 | 11.2 | > 33.2 | > 33.2 | > 33.2 | > 33.2 | 0.317 | 29.4 | 10.4 | > 33.2 | 12.2 | 8.52 |
| CC1(C)CC[C@]2(CO)CC[C@]3(C)C(=CC[C@@H]4[C@@]5(C)CCNCC(C)(C)[C@@H]5CC[C@]43C)[C@@H]2C1 | 24.9 | 4.14 | 4.14 | 4.41 | 18.7 | 1.93 | 3.97 | 35.5 | 17.6 | 3.8 | 15 | 27.7 | 7.09 | 9.4 | 2.05 | 1.4 | 16.8 | 4.94 | 6.68 | 2.62 |
| CC(=O)O[C@H]1CC[C@]2(C)C3C(=O)C[C@]4(C)[C@@H](C(C)CCC(=O)O)CC[C@@]4(C)[C@@H]3CC[C@H]2C1(C)C (stereo partly drawn) | > 50 | > 50 | > 50 | > 50 | > 50 | 17.9 | > 50 | > 50 | > 50 | 20.7 | > 50 | > 50 | > 50 | 16.5 | 20.5 | 36.8 | > 50 | > 50 | 25.9 | > 50 |
| CCC(=C(c1ccc(OCCN2CCCC2)cc1)c1ccc(OCCN2CCCC2)cc1)c1ccc(Cl)cc1 | 1.15 | 1.18 | 1.04 | 0.592 | 1.32 | 0.637 | 1.23 | 1.63 | 1.11 | 0.591 | 1.1 | 1.29 | 1.24 | 0.599 | 0.629 | 0.482 | 0.735 | 0.568 | 0.624 | 0.577 |
| O=C(COc1cccc(/C=C2\Oc3ccc4ccccc4c3C2=O)c1)c1ccc([N+](=O)[O-])cc1 | > 100 | 53.4 | 35.9 | 13.3 | 38.6 | 57.4 | > 100 | 37.8 | > 100 | 23.6 | 62.3 | 28 | 29.3 | > 100 | 18.3 | 12.9 | 16.1 | 27.3 | 14.9 | 11.2 |
